Assay results as given in US20230190854A1, “METHOD OF REDUCING MUSCLE DAMAGE ASSOCIATED WITH INTENSIVE EXERCISE BY ADMINISTERING PURPLE-TEA EXTRACT” (ORYZA OIL & FAT CHEMICAL CO., LTD., priority 2020, published 2023).

Test system: Human umbilical vein endothelial cells (HUVEC)
Test: Evaluation of NO-production-promoting activity (NO2/NO3 Assay Kit-FX)
Type: cell-based
Conditions: 24 hours, sample solution 10 to 1000 μg/mL in medium containing 1% DMSO, culture supernatant
Experimental: The purple-tea sample and the GHG sample obtained in the above example were dissolved in a medium containing 1% DMSO (concentration: 10 to 1000 μg/mL) to prepare a sample solution. A medium containing 1% DMSO was used for a control.
Human umbilical vein endothelial cells (HUVEC) (6.2×10^4 cells/500 μL) were seeded in 24-well plates, pre cultured for 1 day, then the medium was changed (450 μl). After that, a sample solution of 50 μL was added to each well to react for 24 hours. After the reaction, the culture supernatant was subjected to a measurement of a NO-production amount. For the measurement of the NO-production amount, “NO2/NO3 Assay Kit-FX” (trade name, manufactured by Dojindo Molecular Technologies, Inc.) was used. The results are shown in FIG. 2 (purple-tea extract) and FIG. 3 (GHG).
The NO2/NO3 Assay Kit-FX is a kit used for indirectly measuring NO in a sample by the fluorescence method, using the reaction between NO2^− and DAN (2,3-Diaminonaphthalene).

## O=C(OC1OC2COC(=O)c3cc(O)c(O)c(O)c3-c3c(cc(O)c(O)c3O)C(=O)OC2C(O)C1OC(=O)c1cc(O)c(O)c(O)c1)c1cc(O)c(O)c(O)c1 [GHG, 1,2-di-O-galloyl-4,6-O-(S)-hexahydroxydiphenoyl-β-D-glucose]
  NO-production promoting effect (NO2−, NO3− and NO total production): has a NO3− and a NO-total production-promoting effect
